Results from patent publication US20260272907A1, “Therapeutic Tyrosine Kinase Inhibitors for Multiple Sclerosis” (Principia Biopharma Inc., priority 2022, published 2026).

Legend:
[1] = system: patients with relapsing multiple sclerosis; assay: Long-term safety extension: number of new or enlarging T2 lesions (MRI); assay type: in vivo, human
Procedure: In the current open-label extension Part B, all patients receive 60 mg/day. MRI outcomes include numbers of new Gd-enhancing and new/enlarging T2 lesions, T2 lesion volume change from baseline, slowly evolving lesions (SEL), and paramagnetic rim lesions (PRL).
The Week 0 value is from the last MRI obtained in the dose-finding study if performed within 6 weeks prior to Day 1 of the long-term safety study For some patients the Week 0 value began after a gap period ranging from 0-21 weeks. For patients where the gap period was 0 weeks, the Week 0 value began immediately after the completion of Week 16 of the dose-finding study. For patients where the gap period was greater than 6 weeks a new MRI was obtained prior to Day 1 of the long-term safety study.
If from Week 16 of the dose-finding study (Cohort 2), it is also included in Week 12. If from Week 16 of the dose-finding study (Cohort 1), it is after 4 weeks placebo run out.

[2] = system: patients with relapsing multiple sclerosis; assay: Phase 2b dose-finding study: number of new Gd-enhancing T1-hyperintense lesions by brain MRI; conditions: for New Gd-enhancing T1-hyperintense lesion count, observed mean (SD): 12 weeks of treatment, Cohorts 1 and 2 pooled; for Patients with no new Gd-enhancing T1 lesions / Gd-enhancing T1 lesion count, mean (SD): Cohort 1 (all doses); for Gd+ lesion count, mean (SD): Cohort 1, 60 mg/day
Procedure: Cranial (brain) MRI with and without Gd contrast is performed. Basic MRIs are performed for all participants at all study sites and consist of T2- and T1-weighted sequences without and with Gd contrast.
New T1 Gd-enhancing hyperintense and new and enlarging T2 lesions are evaluated at each visit as per the SoA (Table 1), comparing lesion count to that from the previous MRI scan. Unless specified otherwise, the baseline brain MRI is used as the reference to assess all MRI-derived endpoints. The baseline MRI is the last MRI performed before the randomization visit. Standardized endpoint evaluation is assured by central review of brain MRI scans. Blinded central review is performed for all MRI-derived endpoints. Magnetic resonance imaging reviewers are blinded to treatment assignments and to other participant data.
The first step of this procedure tests for an efficacy signal (compared to the null hypothesis of a flat, no dose-response curve) in a procedure that controls the type 1 error. […] The second step is the Dose estimation of the dose-response curve, provided that an efficacy signal is established in the first step.
The 4-week post-randomization placebo data from Cohort 2 (i.e., Week 4 data from Cohort 2) is utilized as the placebo data at Week 12 in analysis, under the assumption of a constant rate of Gd-enhancing T1-hyperintense lesion formation if participants would be receiving placebo over 12 weeks. Participants in Cohort 2 contribute to the placebo data (at Week 4) as well as the data for 4 BTK inhibitor doses (at Week 16). […] If step 1 yields significant results, the best fitting model from the 6 predefined candidate models is chosen using the generalized Akaike information criterion (AIC).
The first step of this procedure tested for an efficacy signal (compared to the null hypothesis of a flat, no dose-response curve) in a procedure that controls the type 1 error.
The MRI assessments were excluded from the analyses if the participant was receiving systemic corticosteroids within the 30 days prior to the MRI assessment date. The 4-week post-randomization placebo data from Cohort 2 (i.e., Week 4 data from Cohort 2) was utilized as the placebo data at Week 12 in analysis under the assumption of a constant rate of Gd-enhancing T1-hyperintense lesion formation if participants were to receive placebo over 12 weeks. Participants in Cohort 2 contributed to the placebo data (at Week 4) as well as the data for 4 BTK inhibitor doses (at Week 16). The 4-week placebo run-out data from Cohort 1 was not included in the analysis. […] Test statistics and adjusted p-values were provided for all 6 candidate models.

[3] = system: CD19+ B-cell; assay: Phase 1: absolute CD19+ B-cell counts
[4] = biological target: T1, CYP2C8 (Homo sapiens, UniProt P10632); assay: Preclinical drug metabolism studies: CYP2C8; assay type: in vitro ADME
T1 sequence (P10632 1-490): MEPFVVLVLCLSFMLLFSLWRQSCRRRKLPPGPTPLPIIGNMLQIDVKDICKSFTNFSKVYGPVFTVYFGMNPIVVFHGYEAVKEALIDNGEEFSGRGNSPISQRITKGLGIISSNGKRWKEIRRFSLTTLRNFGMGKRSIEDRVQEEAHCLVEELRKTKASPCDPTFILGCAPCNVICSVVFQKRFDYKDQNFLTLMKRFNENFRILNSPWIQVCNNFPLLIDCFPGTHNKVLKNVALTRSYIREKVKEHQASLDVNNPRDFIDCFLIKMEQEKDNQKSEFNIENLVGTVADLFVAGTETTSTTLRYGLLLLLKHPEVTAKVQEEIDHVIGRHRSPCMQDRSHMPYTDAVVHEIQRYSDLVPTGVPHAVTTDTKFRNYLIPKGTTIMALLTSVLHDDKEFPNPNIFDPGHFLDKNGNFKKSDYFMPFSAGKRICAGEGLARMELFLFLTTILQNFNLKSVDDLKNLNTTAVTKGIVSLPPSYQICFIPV
Text: See Table 12 for the list of drugs not to be used.

[5] = system: patients with relapsing multiple sclerosis; assay: Phase 2b dose-finding study: clinical laboratory tests, ECG, vital signs (PCSAs, ALT levels); assay type: in vivo, human
Procedure: Temperature, pulse rate, respiratory rate, and blood pressure are assessed. The same method for temperature measurement should be used throughout the study. Blood pressure and pulse measurements are assessed in sitting or supine position with a completely automated device. Same position measurements should be used throughout the study for the same participant. Manual techniques are used only if an automated device is not available. Caffeinated drinks to be avoided before blood pressure measurements. Blood pressure and pulse measurements should be preceded by at least 5 minutes of rest for the participant in a quiet setting without distractions (e.g., television, cell phones). Vital signs (to be taken before blood collection for laboratory tests) consist of 1 pulse, 3 blood pressure measurements (3 consecutive blood pressure readings are recorded at intervals of at least 1 minute), and respiratory rate. The average of the 3 blood pressure readings is recorded.
Single twelve-lead ECGs are obtained as outlined in the SOA (Table 1) using an ECG machine that automatically calculates the heart rate and measures PR, QRS, QT, and QTc intervals. At least one longer rhythm monitoring recording needs to be part of each ECG testing. The ECG is reviewed by a cardiologist for confirmation of abnormality and clinical evaluation. Refer to Example 1.4E for QTc withdrawal criteria and any additional QTc readings that may be necessary.
See Example 1.16 for the list of clinical laboratory tests to be performed and to the SoA (Table 1) for the timing and frequency. The Investigator will review the laboratory report, document this review, and record any clinically relevant changes occurring during the study in the AE section of the eCRF. Clinically significant abnormal laboratory findings are those that are not associated with the underlying disease, unless judged by the Investigator to be more severe than expected for the participant's condition. […] All protocol-required laboratory assessments, as defined in Example 1.16, are conducted in accordance with the laboratory manual and the SoA (Table 1). If laboratory values from non-protocol specified laboratory assessments performed at the institution's local laboratory require a change in participant management or are considered clinically significant by the Investigator (e.g., SAE or AE or dose modification), then the results are recorded in the eCRF.
The following definitions are applied to laboratory parameters, ECG, and vital sign results: • Potentially clinically significant abnormality (PCSA) values are defined as abnormal values considered medically important by the Sponsor according to predefined criteria/thresholds based on literature review and are defined by the Sponsor for clinical laboratory tests and vital signs. • Potentially clinically significant abnormality criteria determine which participants had at least 1 PCSA during the on-treatment period, taking into account all evaluations performed during the on-treatment period including unscheduled or repeated evaluations. The number of all such participants is the numerator for the on-treatment PCSA percentage
Additional tests are performed at any time during the study as determined necessary by the Investigator or required by local regulations.

[6] = 5 mg daily, after 12 weeks of treatment
[7] = 15 mg daily, after 12 weeks of treatment
[8] = 30 mg daily, after 12 weeks of treatment
[9] = 60 mg daily, after 12 weeks of treatment
[10] = after 4 weeks of placebo run-out

With `C=CC(=O)N1CCC[C@@H](n2c(=O)n(-c3ccc(Oc4ccccc4)cc3)c3c(N)nccc32)C1` [the BTK inhibitor, (R)-1-(1-acryloylpiperidin-3-yl)-4-amino-3-(4-phenoxyphenyl)-1H-imidazo[4,5-c]pyridin-2(3H)-one] the “Number of new or enlarging T2 lesions, Mean (SD)” value (“Number … (SD)” for short) ([1]; 5/60 mg, Week 0) was 3.97 (8.47), the “Number of new or enlarging T2 lesions, Median” value (“Number … Median” below) ([1]; 5/60 mg, Week 0) was 0.00 and the “Number … (SD)” value ([1]; 5/60 mg, Week 12) was 1.68 (3.49). The “Number … Median” value ([1]; 5/60 mg, Week 12) was 0.00, the “Number … (SD)” value ([1]; 15/60 mg, Week 0) was 3.52 (6.51) and the “Number … Median” value ([1]; 15/60 mg, Week 0) was 1.00. For the same compound, the “Number … (SD)” value ([1]; 15/60 mg, Week 12) was 1.32 (1.83), the “Number … Median” value ([1]; 15/60 mg, Week 12) was 1.00 and the “Number … (SD)” value ([1]; 30/60 mg, Week 0) was 3.41 (7.32). The “Number … Median” value ([1]; 30/60 mg, Week 0) was 0.00, the “Number … (SD)” value ([1]; 30/60 mg, Week 12) was 1.34 (4.97) and the “Number … Median” value ([1]; 30/60 mg, Week 12) was 0.00. The “New/enlarging T2 lesion counts” value ([1]; 60/60 mg, LTS through W96) was “remained low”, the “Number … (SD)” value ([1]; 60/60 mg, Week 0) was 1.10 (1.87) and the “Number … Median” value ([1]; 60/60 mg, Week 0) was 0.00. The “Number … (SD)” value ([1]; 60/60 mg, Week 12) was 0.29 (0.69), the “Number … Median” value ([1]; 60/60 mg, Week 12) was 0.00 and the “Number … (SD)” value ([1]; All (N = 125), Week 0) was 3.00 (6.56). The “Number … Median” value ([1]; All (N = 125), Week 0) was 0.00, the “Number … (SD)” value ([1]; All (N = 125), Week 12) was 1.16 (3.21) and the “Number … Median” value ([1]; All (N = 125), Week 12) was 0.00. The “New Gd-enhancing T1-hyperintense lesion count, Mean” value [2, 6] was 1.39, the “New Gd-enhancing T1-hyperintense lesion count, Median” value [2, 6] was 0.00 and the “New Gd-enhancing T1-hyperintense lesion count, observed mean (SD)” value ([2]; 5 mg once daily) was 1.39 (3.20). For the same compound, the “New Gd-enhancing T1-hyperintense lesion count, Mean” value [2, 7] was 0.77, the “New Gd-enhancing T1-hyperintense lesion count, Median” value [2, 7] was 0.00 and the “New Gd-enhancing T1-hyperintense lesion count, observed mean (SD)” value ([2]; 15 mg once daily) was 0.77 (1.48). For the same compound, the “New Gd-enhancing T1-hyperintense lesion count, Mean” value [2, 8] was 0.76, the “New Gd-enhancing T1-hyperintense lesion count, Median” value [2, 8] was 0.00 and the “New Gd-enhancing T1-hyperintense lesion count, observed mean (SD)” value ([2]; 30 mg once daily) was 0.76 (3.31). For the same compound, the “New Gd-enhancing T1-hyperintense lesion count, Mean” value [2, 9] was 0.13, the “New Gd-enhancing T1-hyperintense lesion count, Median” value [2, 9] was 0.00 and the “Patients with >=3 new Gd-enhancing T1-hyperintense lesions” value [2, 9] was 0 n. The “New Gd-enhancing T1-hyperintense lesion count, observed mean (SD)” value ([2]; 60 mg once daily) was 0.13 (0.43), the “Relative reduction in new Gd-enhancing T1-hyperintense lesions compared with placebo” value ([2]; 60 mg, 12 weeks, negative binomial regression model adjusted for baseline lesion activity, 95% CI [28.02%, 96.88%], nominal p=0.0178) was 85.02% and the “Participants with no new Gd-enhancing T1-hyperintense lesions” value ([2]; 60 mg, end of 12 weeks of treatment, 28 of 31 with evaluable MRI) was 90.30%. For the same compound, the “Dose-response for reduction in number of new active Gd-enhancing T1-hyperintense brain lesions” value ([2]; 5-60 mg once daily, after 12 weeks of treatment, MCP-Mod) was “dose-response relationship”, the “Patients with no new Gd-enhancing T1 lesions” value ([2]; 4 weeks after discontinuing tolebrutinib (placebo run-out)) was 85.2% and the “Gd-enhancing T1 lesion count, mean (SD)” value [2, 10] was 0.44 (1.70). For the same compound, the “Gd-enhancing T1 lesion count, mean (SD)” value ([2]; after 12 weeks of tolebrutinib) was 0.37 (0.99), the “Patients with no new Gd-enhancing T1 lesions” value ([2]; after 12 weeks of tolebrutinib treatment) was 83.3% and the “Gd+ lesion count, mean (SD)” value [2, 10] was 0.31 (0.70). The “Gd+ lesion count, mean (SD)” value ([2]; after 12 weeks of tolebrutinib) was 0.20 (0.56), the “Dose at which the dose-response for the increase in circulating B-cells is maximal” value [3] was “approximately 30 mg once daily” and the “Dose-dependent increase of absolute CD19+ B-cell counts relative to baseline” value ([3]; observed maximally at Day 4) was “up to 80%”. The “Substrate of CYP2C8 isoenzyme” value [4] was “substrate”, the “ALT level of the participant with AESI” value ([5]; 30 mg group, Week 8 visit) was 105 U/L and the “ALT level of the participant with AESI” value ([5]; 30 mg group, within 4 days after the Week 8 visit, back to normal level) was 32 U/L. For the same compound, the “ALT level of the participant with AESI” value ([5]; 60 mg group, Week 4 visit, ULN 34 U/L) was 107 U/L, the “ALT level of the participant with AESI” value ([5]; 60 mg group, Week 12, back to normal level) was 28 U/L and the “PCSAs related to vital signs, labs and ECGs: relation to dose” value ([5]; reported in multiple treatment groups) was “no dose relationship”.
